Drawing on US20260355212A1 (priority 2022, published 2026), this text covers IC50 for 2 compounds.

The term IC50 denotes the concentration that inhibits the measured activity by half.

The target of one experiment is SARS-CoV-2 Mpro (Severe acute respiratory syndrome coronavirus 2, UniProt P0DTD1). The experiment can be described thus: SARS-CoV-2 Mpro enzymatic inhibition assay (fluorescence). The experiment is classed as biochemical. The procedure, abridged: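 A fluorescence readout (340 nm excitation, 490 nm emission) was taken after the substrate reaction ran 60 min at 30° C. Before substrate addition, E. coli-expressed protease and compound (3-fold dilutions, 10 doses, duplicates) sat together 30 min at room temperature. Percent inhibition was fitted by variable-slope nonlinear regression to give IC50.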

The next experiment concerns the target HCoV-229E Mpro (Human coronavirus 229E, UniProt P0C6X1). The experiment can be described thus: HCoV-229E Mpro enzymatic inhibition assay (fluorescence). The experiment is classed as biochemical.
Another experiment concerns the target HCoV-HKU1 Mpro (Human coronavirus HKU1, UniProt P0C6X2). The experiment can be described thus: HCoV-HKU1 Mpro enzymatic inhibition assay (fluorescence). The class given is biochemical. Put shortly: (§1)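 IC50 values derive from variable-slope nonlinear regression of percent inhibition, each point corrected by a compound-plus-substrate background well lacking enzyme. Enzyme, pre-incubated 30 min at room temperature with inhibitor, was given substrate and read fluorimetrically (Ex/Em 340/490 nm) after 60 min at 30 °C.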

The target in a further experiment is MERS Mpro (Middle East respiratory syndrome-related coronavirus, UniProt K9N7C7). The experiment in a line: biochemical. More on the design: species or system MERS-CoV.
Chain of MERS Mpro (K9N7C7 3248-3553 limits assumed): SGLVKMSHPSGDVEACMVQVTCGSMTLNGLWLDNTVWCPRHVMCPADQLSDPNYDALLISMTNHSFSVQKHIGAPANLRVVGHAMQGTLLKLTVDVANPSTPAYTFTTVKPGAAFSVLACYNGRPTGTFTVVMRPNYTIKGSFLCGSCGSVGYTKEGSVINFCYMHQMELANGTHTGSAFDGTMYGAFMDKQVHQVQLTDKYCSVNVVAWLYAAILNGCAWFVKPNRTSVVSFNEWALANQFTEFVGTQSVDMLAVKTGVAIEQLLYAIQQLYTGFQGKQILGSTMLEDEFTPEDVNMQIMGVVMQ
For a further experiment, the target named is HCoV-NL63 Mpro (Human coronavirus NL63, UniProt P0C6X5). The experiment can be described thus: HCoV-NL63 Mpro enzymatic inhibition assay (fluorescence). The experiment is classed as biochemical. Put shortly: as §1
Chain of HCoV-NL63 Mpro (P0C6X5 2940-3242 limits assumed): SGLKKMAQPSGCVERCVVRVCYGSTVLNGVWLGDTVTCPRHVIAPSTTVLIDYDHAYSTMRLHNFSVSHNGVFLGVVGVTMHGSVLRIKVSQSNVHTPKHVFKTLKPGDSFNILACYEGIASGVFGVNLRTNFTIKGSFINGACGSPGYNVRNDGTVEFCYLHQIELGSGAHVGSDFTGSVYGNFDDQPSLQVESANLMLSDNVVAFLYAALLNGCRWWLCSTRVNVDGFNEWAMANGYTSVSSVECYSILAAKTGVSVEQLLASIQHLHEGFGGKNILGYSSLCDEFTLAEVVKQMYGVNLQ
The next experiment has as its target HCoV-OC43 Mpro (Human coronavirus OC43, UniProt P0C6X6). The experiment in a line: HCoV-OC43 Mpro enzymatic inhibition assay (fluorescence). The class given is biochemical. Put shortly: as §1
Another experiment concerns the target SARS-CoV-1 Mpro (Severe acute respiratory syndrome coronavirus, UniProt P0C6X7). The experiment can be described thus: biochemical.

Molecules are shown by their SMILES. Like-named read-outs stand apart in the source and are kept apart here.

Chain of HCoV-OC43 Mpro (P0C6X6 3247-3549 limits assumed): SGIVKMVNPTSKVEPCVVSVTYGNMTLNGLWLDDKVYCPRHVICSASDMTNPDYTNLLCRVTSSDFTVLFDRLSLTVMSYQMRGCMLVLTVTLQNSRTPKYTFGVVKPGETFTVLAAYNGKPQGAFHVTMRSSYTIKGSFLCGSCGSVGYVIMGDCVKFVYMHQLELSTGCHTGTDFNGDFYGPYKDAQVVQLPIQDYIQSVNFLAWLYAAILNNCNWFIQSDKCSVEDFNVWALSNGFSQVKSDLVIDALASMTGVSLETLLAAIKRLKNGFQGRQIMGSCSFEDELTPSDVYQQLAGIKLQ
Chain of HCoV-229E Mpro (P0C6X1 2966-3267 limits assumed): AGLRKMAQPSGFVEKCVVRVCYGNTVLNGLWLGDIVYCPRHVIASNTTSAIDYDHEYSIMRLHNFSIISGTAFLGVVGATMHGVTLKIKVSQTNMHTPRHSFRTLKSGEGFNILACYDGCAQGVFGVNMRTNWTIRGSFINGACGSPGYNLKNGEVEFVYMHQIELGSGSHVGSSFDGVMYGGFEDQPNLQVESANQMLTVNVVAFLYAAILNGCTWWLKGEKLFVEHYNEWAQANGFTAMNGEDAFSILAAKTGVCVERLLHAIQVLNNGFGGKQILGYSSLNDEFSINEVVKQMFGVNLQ
Chain of HCoV-HKU1 Mpro (P0C6X2 3335-3637 limits assumed): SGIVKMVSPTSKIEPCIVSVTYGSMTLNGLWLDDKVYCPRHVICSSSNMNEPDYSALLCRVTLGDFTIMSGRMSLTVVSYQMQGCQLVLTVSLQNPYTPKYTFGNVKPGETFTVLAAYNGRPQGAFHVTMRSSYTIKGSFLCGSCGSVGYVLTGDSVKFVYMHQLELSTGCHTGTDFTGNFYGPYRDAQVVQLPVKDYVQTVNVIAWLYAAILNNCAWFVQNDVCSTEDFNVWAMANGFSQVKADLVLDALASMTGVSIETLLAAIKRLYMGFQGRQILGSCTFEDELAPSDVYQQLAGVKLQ

For the compound `O=C[C@H](C[C@@H]1CCNC1=O)NC(=O)[C@@H]1C[C@@H](Cc2cccc(Cl)c2)CN1C(=O)c1cc2ccccc2[nH]1` [Compound 137, (2S,4R)-4-(3-Chlorobenzyl)-1-(1H-indole-2-carbonyl)-N—((S)-1-oxo-3-((S)-2-oxopyrrolidin-3-yl)propan-2-yl)pyrrolidine-2-carboxamide], the 50% inhibitory concentration (IC50) on SARS-CoV-2 Mpro came out at 478 nM; against HCoV-229E Mpro, 1260 nM; on HCoV-HKU1 Mpro it was 262 nM; on MERS Mpro it was 36300 nM; against HCoV-NL63 Mpro, 6560 nM; against HCoV-OC43 Mpro it was 1420 nM. For the same compound, half-maximal inhibition at SARS-CoV-1 Mpro (IC50) required 1520 nM.

Consider `O=C[C@H](C[C@@H]1CCNC1=O)NC(=O)[C@@H]1CCCN1C(=O)c1cc2ccccc2[nH]1` [Compound 138], for which the IC50 at SARS-CoV-2 Mpro (mean, 25 nM protein, 25 μM substrate, 30 min pre-incubation, 60 min at 30° C., read-out: Mpro_SARS-CoV-2 mean IC50) came out at 499 nM; on HCoV-229E Mpro, 208 nM; against HCoV-HKU1 Mpro, 227 nM; at MERS Mpro, 1730 nM; at HCoV-NL63 Mpro, 417 nM; on HCoV-OC43 Mpro, 317 nM. The compound also returned an IC50 against SARS-CoV-1 Mpro of 691 nM.
